In one data set the target is chlorophyllase. As to the kind of experiment: In vitro chlorophyllase-inhibiting activity test. The data set is classed as biochemical, mung bean. The note with it: substrate chlorophyll 120 ppm, sample 0.3 ppm to 30.0 ppm. How it is done:
A chlorophyllase inhibition rate of a salt sample solution at each concentration was determined, and an IC50 value for a chlorophyllase inhibition activity of a salt sample was calculated.

Data set [1] can be described thus: Stability of sample solutions in the dark/under light. The data set is classed as physicochemical. The note with it: under light 30,000 lux, salts in water, acidic reference in 30% to 50% ethanol. The protocol: Determination: An appropriate amount of a salt sample was taken, dissolved with water, and diluted to prepare a test solution with a concentration of about 10 ppm. An acidic reference substance (extremely-insoluble in water) was prepared with a 30% to 50% ethanol aqueous solution into a test solution with a concentration of about 10 ppm.
Each test solution was scanned by an ultraviolet spectrophotometer (at 0 h) for absorbance in a range of 200 nm to 800 nm immediately after being prepared. Then a test solution of each sample was divided into two parts. One part was placed at room temperature of 25° C. in the dark, and the other part was placed under light with a light intensity of 30,000 lux. At 1 h, 2 h, and 3 h, a solution sample was collected and scanned for absorbance respectively.
An absorbance value of a maximum absorption peak at 0 h (starting) of each test solution was set as a relative content of 100%, and a ratio of an absorbance value at each time point to the absorbance value at 0 h was calculated to determine a relative content, %.

Data set [2] is described as follows: Water solubility of the prepared salts. The data set is classed as physicochemical.

copper chlorin [Example 61]: the “IC50 for chlorophyllase inhibition activity” value against chlorophyllase came out at 6.18 ppm. Further, the Relative content came to 85.27% in data set [1] (1 h), 82.15% in data set [1] (2 h) and 80.17% in data set [1] (3 h). The solubility in water result in data set [2] is “slightly soluble”.
For “copper copper chlorophyllin [Example 51]” the same measures were 13.70 ppm, 98.85%, 97.47%, 96.78% and “slightly soluble”.
Regarding copper iron chlorin [Example 29], the “IC50 for chlorophyllase inhibition activity” value against chlorophyllase is 4.92 ppm. Further, the Relative content worked out at 78.52% in data set [1] (1 h), 71.02% in data set [1] (2 h) and 64.29% in data set [1] (3 h). In addition, in data set [2], the solubility in water result is listed as “slightly soluble”.
copper iron chlorophyllin [Example 34]: the “IC50 for chlorophyllase inhibition activity” value on chlorophyllase was determined as 5.04 ppm. The Relative content is 72.13% in data set [1] (1 h), 68.58% in data set [1] (2 h) and 65.03% in data set [1] (3 h). Besides, in data set [2], the solubility in water result was “slightly soluble”.
For copper zinc chlorophyllin [Example 42] the same measures were 17.76 ppm, 88.43%, 93.28%, 70.90% and “slightly soluble”.
On the same counts, the results for manganese chlorin [Example 59] are 6.23 ppm, 44.94%, 40.28%, 34.21% and “slightly soluble”.
On the same counts, the results for “manganese copper chlorophyllin [Example 47]” are 13.85 ppm, 76.34%, 72.11%, 67.37% and “soluble”.
With manganese iron chlorin [Example 27], at chlorophyllase, the “IC50 for chlorophyllase inhibition activity” value came out at 5.20 ppm. Further, the values for the Relative content in data set [1] (1 h), in data set [1] (2 h) and in data set [1] (3 h) were 72.13%, 68.26% and 63.87%, respectively. The solubility in water result in data set [2] is “slightly soluble”.
For potassium chlorin [Example 52] the same measures were 5.98 ppm, 60.05%, 46.81%, 42.89% and “easily soluble”.
On the same counts, the results for “potassium copper chlorophyllin [Example 43]” are 12.89 ppm, 83.53%, 77.11%, 78.11% and “easily soluble”.
“sodium copper chlorophyllin [Copper chlorophyllin Na^+]”: on chlorophyllase, the “IC50 for chlorophyllase inhibition activity” value amounted to 13.72 ppm. Also, the Relative content was determined as 72.50% in data set [1] (1 h), 67.03% in data set [1] (2 h) and 66.30% in data set [1] (3 h).
On to “sodium zinc chlorophyllin [Zinc chlorophyllin Na^+]”, for which the “IC50 for chlorophyllase inhibition activity” value against chlorophyllase is reported as 15.91 ppm. The Relative content is reported as 51.90% in data set [1] (1 h), 42.51% in data set [1] (2 h) and 37.81% in data set [1] (3 h).
With “zinc iron chlorophyllin [Iron chlorophyllin Zn^2+]”, the “IC50 for chlorophyllase inhibition activity” value at chlorophyllase worked out at 5.16 ppm. In addition, the Relative content in data set [1] (1 h) was 69.34%; in data set [1] (2 h), 63.04%; in data set [1] (3 h), 60.46%.

Values taken from patent US20260123631A1, “NATURAL PORPHIN SALT AND USE THEREOF AS PLANT GROWTH REGULATOR AND PLANT IMMUNITY INDUCER” (NANJING BOSTEC BIOLOGICAL ENGINEERING CO., LTD, priority 2022, published 2026).
